Structures can show the parent of a compound that is named as a salt. Where two headings read alike, the source gives them in different places.
Legend:
[1] = system: ARE/Nrf2 pathway (CellSensor ARE-bla HepG2 cell line); assay: ARE-bla β-lactamase reporter gene assay; type: cell-based; details: HepG2 cells
p53 = details: ref PubChem AID 720552; cited from earlier work
[2] = system: activator protein 1 (AP1); details: assays previously performed; cited from earlier work
heat shock element (HSE) = details: ref PubChem AID 743228; cited from earlier work
in vitro = details: human

| Compound | Activation of ARE-β-lactamase expression [1] | Shape of activity in the ARE-bla assay [1] | Cytotoxicity to HepG2 cells (CTG) (HepG2 cells; human, 18 h) | other results |
| --- | --- | --- | --- | --- |
| OC[C@H]1O[C@H]([S-])[C@H](O)[C@@H](O)[C@@H]1O.[Au+] [Aurothioglucose] | directly activated ARE-β-lactamase expression | bell shaped | – | Cytotoxicity to HepG2 cells (CTG) (HepG2 cells): toxic at the highest concentrations; Activity in β-lactamase reporter gene assay for p53 (p53): not active |
| CC(C)(C)c1ccc(C(=O)CCCN2CCC(OC(c3ccccc3)c3ccccc3)CC2)cc1 [Ebastine] | – | – | cytotoxic to HepG2 cells | – |
| c1ccc2c(c1)OCC(C1=NCCN1)O2 (centres unmarked) [Idazoxan hydrochloride] | directly activated ARE-β-lactamase expression | simple increase in ARE activation | not toxic to HepG2 cells at the concentrations tested | Activity in β-lactamase reporter gene assay for AP1 [2]: not active in any of these assays; Activity in β-lactamase reporter gene assay for HSE (heat shock element (HSE)): not active in any of these assays; Activity in β-lactamase reporter gene assay for p53 (p53): not active in any of these assays |
| O=C1c2ccccc2C(=O)c2c(NCCc3ccc(O)cc3)ccc(NCCc3ccc(O)cc3)c21 [JFD00244] | active in only one repetition | – | – | – |
| Cc1ccccc1/C=C/C1=NCCN1 [Metrazoline oxalate] | directly activated ARE-β-lactamase expression | simple increase in ARE activation | not toxic to HepG2 cells at the concentrations tested | – |
| COc1c(C)c2c(c(O)c1C/C=C(\C)CCC(=O)O)C(=O)OC2 [Mycophenolic acid] | active in only one repetition | – | – | – |
| COc1cccc2c1C(=O)c1c(O)c3c(c(O)c1C2=O)C[C@@](O)(C(=O)CO)C[C@@H]3O[C@H]1C[C@H](N2CCO[C@H](OC)C2)[C@H](O)[C@H](C)O1 [Nemorubicin] | – | – | cytotoxic to HepG2 cells | – |
| O=C1OC(=O)[C@H]2[C@@H]1[C@@H]1CC[C@H]2O1 [Norcantharidin] | active in only one repetition | – | – | – |
| CC(C)(C)c1ccc(C(O)CCCN2CCC(C(O)(c3ccccc3)c3ccccc3)CC2)cc1 (centres unmarked) [Terfenadine] | – | – | – | IC50 at 24 h (in vitro): 6.7 µM |
| C/C=C(/C)C(=O)O[C@H]1C(C)=C2[C@H]([C@@H]1OC(=O)CCCCCCC)[C@@](C)(OC(C)=O)C[C@H](OC(=O)CCC)[C@@]1(O)[C@H]2OC(=O)[C@@]1(C)O [Thapsigargin] | – | – | cytotoxic to HepG2 cells | – |

Reference: paper PMC4835244 (Stem Cells Translational Medicine, 2016)
